In ChEMBL document CHEMBL1201862, “PubChem BioAssay data set” (2004):
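Exposure lasted 48 hours, with cells grown in 96-well plates and compounds tested at five concentrations. GI50 = concentration required for 50% inhibition of growth.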 Activity calls are given as the source filed them. Rule as the data show it: active = GI50 up to about 1.1 µM and inactive = higher.

Assays:
Test in all cases: NCI-60 cell line screen, 48 h
786-0 = test system: 786-0
CCRF-CEM = test system: CCRF-CEM
HCC 2998 = test system: HCC 2998
HOP-62 = test system: HOP-62
IGROV-1 = test system: IGROV-1
KM12 = test system: KM12
NCI-H460 = test system: NCI-H460
OVCAR-3 = test system: OVCAR-3
RPMI-8226 = test system: RPMI-8226
RXF 393 = test system: RXF 393
SF-295 = test system: SF-295
SK-MEL-28 = test system: SK-MEL-28
SN12C = test system: SN12C
SNB-75 = test system: SNB-75
UACC-62 = test system: UACC-62
LOX IMVI = test system: LOX IMVI
OVCAR-5 = test system: OVCAR-5
SK-MEL-5 = test system: SK-MEL-5
TK-10 = test system: TK-10

Measured: GI50

CC1(C(=O)NCCN(CCNC(=O)C2(C)CC3(C)CC(C)(C2)C(=O)NC3=O)CCNC(=O)C2(C)CC3(C)CC(C)(C2)C(=O)NC3=O)CC2(C)CC(C)(C1)C(=O)NC2=O (stereo not given)
inactive: 786-0 > 100 µM | CCRF-CEM > 100 µM | HCC 2998 > 100 µM | HOP-62 > 100 µM | IGROV-1 > 100 µM | KM12 > 100 µM | NCI-H460 > 100 µM | OVCAR-3 > 100 µM | RPMI-8226 > 100 µM | RXF 393 > 100 µM | SF-295 > 100 µM | SK-MEL-28 > 100 µM | SN12C > 100 µM | SNB-75 > 100 µM | UACC-62 > 100 µM

N#CNc1nc(N)c(-c2ccc(Cl)cc2)c(C(=O)Nc2nccs2)n1
inactive: 786-0 > 100 µM | HCC 2998 > 100 µM | HOP-62 > 100 µM | IGROV-1 > 100 µM | KM12 > 100 µM | LOX IMVI > 100 µM | NCI-H460 > 100 µM | OVCAR-3 > 100 µM | OVCAR-5 > 100 µM | RPMI-8226 > 100 µM | RXF 393 > 100 µM | SF-295 > 100 µM | SK-MEL-28 > 100 µM | SK-MEL-5 > 100 µM | SN12C > 100 µM | SNB-75 > 100 µM | TK-10 > 100 µM | UACC-62 > 100 µM

CCN(CC)/N=N/c1c(C(N)=O)n[nH]c1C
inactive: 786-0 29.6 µM | CCRF-CEM 18.3 µM | HCC 2998 > 100 µM | HOP-62 31.2 µM | IGROV-1 > 100 µM | KM12 50 µM | LOX IMVI 28.6 µM | NCI-H460 31.2 µM | OVCAR-3 > 100 µM | RPMI-8226 44.2 µM | RXF 393 > 100 µM | SF-295 38.1 µM | SK-MEL-28 > 100 µM | SK-MEL-5 33.7 µM | SN12C 40.6 µM | SNB-75 23.2 µM | TK-10 > 100 µM | UACC-62 35 µM

COC1OC(COS(=O)(=O)c2ccc(C)cc2)C(O)C(OS(=O)(=O)c2ccc(C)cc2)C1OS(=O)(=O)c1ccc(C)cc1 (stereo not given)
inactive: 786-0 > 100 µM | CCRF-CEM > 100 µM | HCC 2998 > 100 µM | HOP-62 > 100 µM | IGROV-1 > 100 µM | KM12 > 100 µM | NCI-H460 > 100 µM | OVCAR-3 > 100 µM | OVCAR-5 > 100 µM | RPMI-8226 > 100 µM | RXF 393 > 100 µM | SF-295 > 100 µM | SK-MEL-28 > 100 µM | SK-MEL-5 > 100 µM | SN12C > 100 µM | SNB-75 95.9 µM

C/C=C1\CN2CCc3c([nH]c4ccccc34)C2C=C1CCO (stereo not given)
inactive: 786-0 > 340 µM | CCRF-CEM > 340 µM | HCC 2998 > 340 µM | HOP-62 > 340 µM | IGROV-1 > 340 µM | KM12 > 340 µM | LOX IMVI > 340 µM | NCI-H460 > 340 µM | OVCAR-3 231 µM | OVCAR-5 > 340 µM | RPMI-8226 > 340 µM | RXF 393 > 340 µM | SF-295 > 340 µM | SK-MEL-28 > 340 µM | SK-MEL-5 > 340 µM | SN12C > 340 µM | TK-10 > 340 µM | UACC-62 > 340 µM

O=C1CCCC2=C1CC1=C(CCCC1=O)N2c1ccccc1
inactive: 786-0 > 100 µM | CCRF-CEM > 100 µM | HCC 2998 > 100 µM | IGROV-1 > 100 µM | KM12 > 100 µM | LOX IMVI > 100 µM | NCI-H460 > 100 µM | OVCAR-3 > 100 µM | OVCAR-5 > 100 µM | RPMI-8226 > 100 µM | RXF 393 40.7 µM | SK-MEL-28 > 100 µM | SK-MEL-5 > 100 µM | SN12C > 100 µM | SNB-75 > 100 µM | TK-10 > 100 µM | UACC-62 > 100 µM

Cc1ccc(NC(=O)COC(=O)c2cccc3c(=O)c4ccccc4[nH]c23)cc1
inactive: 786-0 28.4 µM | HCC 2998 37.6 µM | HOP-62 60.5 µM | IGROV-1 44.8 µM | KM12 22.1 µM | LOX IMVI 16.9 µM | NCI-H460 35.2 µM | OVCAR-3 54 µM | RPMI-8226 87.7 µM | RXF 393 22.8 µM | SF-295 35.7 µM | SK-MEL-28 47.4 µM | SK-MEL-5 21.6 µM | SN12C 32.1 µM | SNB-75 31.3 µM | TK-10 22 µM | UACC-62 30.6 µM

O=C(OCCOCCOC(=O)c1c[nH]cc1-c1ccccc1)c1c[nH]cc1-c1ccccc1
inactive: 786-0 25.9 µM | CCRF-CEM 23 µM | HCC 2998 21.9 µM | HOP-62 17.3 µM | IGROV-1 21.3 µM | KM12 20.2 µM | LOX IMVI 16.4 µM | NCI-H460 21.2 µM | OVCAR-3 22.1 µM | OVCAR-5 25.8 µM | RPMI-8226 15 µM | RXF 393 15.4 µM | SF-295 18.4 µM | SK-MEL-5 16.8 µM | SN12C 18.1 µM | SNB-75 17.2 µM | TK-10 30.3 µM | UACC-62 15.9 µM

CCOC(=O)NC(=O)c1cn(CCOCCOC(=O)NCCCCCCNC(=O)OCCOCCn2cc(C(=O)NC(=O)OCC)c(=O)[nH]c2=O)c(=O)[nH]c1=O
inactive: 786-0 > 100 µM | HCC 2998 > 100 µM | HOP-62 > 100 µM | IGROV-1 > 100 µM | KM12 > 100 µM | LOX IMVI > 100 µM | NCI-H460 > 100 µM | OVCAR-3 > 100 µM | OVCAR-5 > 100 µM | RPMI-8226 > 100 µM | RXF 393 > 100 µM | SF-295 > 100 µM | SK-MEL-28 > 100 µM | SK-MEL-5 > 100 µM | SN12C > 100 µM | SNB-75 > 100 µM | TK-10 > 100 µM | UACC-62 > 100 µM

ClCCCc1ccccc1C1=NCCc2ccccc21
inactive: 786-0 > 100 µM | CCRF-CEM > 100 µM | HCC 2998 40.3 µM | HOP-62 > 100 µM | IGROV-1 98.9 µM | KM12 40.9 µM | NCI-H460 43.9 µM | OVCAR-3 > 100 µM | OVCAR-5 > 100 µM | RPMI-8226 3.21 µM | RXF 393 > 100 µM | SF-295 > 100 µM | SK-MEL-28 > 100 µM | SK-MEL-5 9.73 µM | SN12C 48.4 µM | SNB-75 17.5 µM | TK-10 > 100 µM | UACC-62 56.2 µM

Cc1nc2c(s/c(=N\N)n2-c2ccccc2)c(=O)n1C
inactive: 786-0 > 100 µM | CCRF-CEM > 100 µM | HCC 2998 > 100 µM | IGROV-1 > 100 µM | KM12 80.2 µM | LOX IMVI > 100 µM | NCI-H460 > 100 µM | OVCAR-5 > 100 µM | RPMI-8226 > 100 µM | RXF 393 > 100 µM | SF-295 > 100 µM | SK-MEL-28 > 100 µM | SK-MEL-5 > 100 µM | SN12C > 100 µM | SNB-75 > 100 µM | TK-10 > 100 µM | UACC-62 > 100 µM
